Assay results as given in publication PMC2217464 (The Journal of General Physiology, 2004).
Numbering of substitutions follows the chain as printed.

Tests used:
[1] = molecular target: T1, mouse bestrophin-2 (mBest2) (Mus musculus, UniProt Q8BGM5, S79C); test: whole-cell patch clamp, block of Cl- current; type: cell-based
T1 sequence (Q8BGM5 1-508 S79C): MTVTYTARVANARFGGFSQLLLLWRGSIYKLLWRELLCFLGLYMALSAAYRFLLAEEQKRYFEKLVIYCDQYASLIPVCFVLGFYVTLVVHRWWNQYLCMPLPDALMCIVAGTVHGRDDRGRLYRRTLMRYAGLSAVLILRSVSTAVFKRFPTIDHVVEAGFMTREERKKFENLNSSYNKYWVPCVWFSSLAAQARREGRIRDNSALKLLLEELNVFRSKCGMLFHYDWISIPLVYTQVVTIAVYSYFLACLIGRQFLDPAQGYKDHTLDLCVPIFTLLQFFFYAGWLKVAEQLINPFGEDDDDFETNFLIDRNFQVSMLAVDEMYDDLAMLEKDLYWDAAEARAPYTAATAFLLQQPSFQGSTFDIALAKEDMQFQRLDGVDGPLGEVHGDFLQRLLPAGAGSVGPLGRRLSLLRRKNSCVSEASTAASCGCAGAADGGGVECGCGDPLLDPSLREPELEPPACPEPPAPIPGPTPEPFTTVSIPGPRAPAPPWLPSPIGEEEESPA

[2] = molecular target: T2, mouse bestrophin-2 (mBest2) (Mus musculus, UniProt Q8BGM5); test: whole-cell patch clamp, block of Cl- current; type: cell-based
T2 sequence (Q8BGM5 1-508): T1 sequence (Q8BGM5 1-508 S79C) with C79S

| IC50 [1] [µM] | IC50 [2] [µM] | Structure (SMILES) |
| --- | --- | --- |
| 14.6 ± 3.6 | 3.1 ± 0.3 | O=S(=O)(O)c1cc(N=C=S)ccc1/C=C/c1ccc(N=C=S)cc1S(=O)(=O)O [DIDS] |
| – | 12000 | N#CS [SCN^−] |
